One may read the half-life as the time needed for the level to fall by half in the phase considered. A higher half-life goes with slow decline. The term IC50 denotes the midpoint of a concentration-inhibition curve.

Series [1] can be described thus: human metabolic stability half-life assay. To be noted: microsomes, human liver microsomes. The protocol: Metabolic Stability Half-Life Panel
Incubation with Liver Microsomes
On the technique in general: Liver microsomes are a subcellular fraction often used to study metabolism.

A further series deals with human Notch 1. In words: Notch-CBF1 Transactivation Assay (Notch 1). To be noted: read-out: Notch 1 IC50; Notch-CBF1 transactivation luciferase assay in transfected HeLa cells; some values are an average of N experiments. In kind it is cell-based. An excerpt:
(§1) Notch-CBF1 Transactivation Assay
(§2) The Notch-CBF1 (C-promoter binding factor I) cell based transactivation assay is based on the ability of the released Notch intracellular domain fragments (NICDs) to function as transcription factors in conjunction with CBF1 and other nuclear factors. Luciferase assays were used to measure the antagonism of Notch-CBF1 transcriptional activity. HeLa cervical cancer cells are transiently co-transfected with pCDNA3.1/Hygro plasmids containing truncated Notch 1, Notch 2, Notch 3, or Notch 4 receptors and a PGL3 luciferase reporter vector containing 4 copies of CBF1 binding site. The cells were then tested for Notch-CBF1 activity in the absence or presence of test compounds. HeLa cells, maintained in DMEM (high glucose with HEPES), 1× glutamine/penicillin/streptomycin and 10% Fetal Bovine serum, were transiently transfected in a T175 Flask (4.5×10^6 cells/flask) using the Monster Transfection Kit (Minis #MIR2906) according to manufacturers specifications. Table 13 denotes respective DNA quantity for the transfections.
(§3) Assay media (5 μL) containing test compounds in final concentrations ranging from 5 μM to 8.4×10^−5 μM (3 fold serial dilutions) were added to the cells and the cell plates were then incubated for 18 hours at 37° C. and 5% CO2. Control wells contained DMSO vehicle (total counts) or 0.5 μM of an in-house small molecule inhibitor (background counts). Duplicates were used for each sample. Luciferase activity was measured after a 20-minute incubation with 50 μl STEADY-GLO® luciferase reagents according to manufacturer's specifications (Promega, Cat. #E2550) and analyzed by Envision plate reader (PerkinElmer, Boston, Mass.).
(§4) The antagonist effect of compounds was expressed as 100×[1−(average sample−average background)/(average total−average background)] where sample is the luciferase activity in the presence of test compound, background is equal to the luciferase activity in the presence of the small molecule inhibitor control and the total is signal induced in DMSO wells.

For a further series, the system named is human Notch 3. The series can be described thus: Notch-CBF1 Transactivation Assay (Notch 3). In kind it is cell-based. The note with it: read-out: Notch 3 IC50; Notch-CBF1 transactivation luciferase assay in transfected HeLa cells; some values are an average of N experiments.
From the text: as §1, §2, §3, §4

Where [2] appears, read: pH 7.4, CYP-mediated metabolic stability half life, NADPH-dependent.
Setting [3] is: pH 7.4, HLM (t1/2, min), CYP-mediated (NADPH-dependent), 0.5 μM compound, 45 min time course, some values are an average of N experiments.

In series [1] (setting [2]), `C=CC[C@H](C(N)=O)[C@@H](CC(C)C)C(=O)N[C@H]1N=C(c2ccccc2)c2cc(Cl)ccc2N(C)C1=O` [Comparative Compound 57, reference compound] showed a half-life at 0.5 µM of at most 9 min.
On the same count and under the same terms, for `CCCC[C@H](C(N)=O)[C@@H](CC(C)C)C(=O)N[C@H]1N=C(c2ccc(Cl)cc2)c2ccccc2N(C)C1=O` [Comparative Compound 58, reference compound] the value was at most 9 min; for `C=CC[C@H](C(N)=O)[C@@H](CC(C)C)C(=O)N[C@H]1N=C(c2ccccc2)c2ccccc2N(CCC)C1=O` [Comparative Compound 59, reference compound], at most 9 min.
`COc1cccc2c1NC(=O)[C@@H](NC(=O)[C@H](CCC(F)(F)F)[C@H](CC1CC1)C(N)=O)N=C2c1cccc(C(F)(F)F)c1` [Example 2, (2R,3S)-3-(Cyclopropylmethyl)-N-((3S)-9-methoxy-2-oxo-5-(3-(trifluoromethyl)phenyl)-2,3-dihydro-1H-1,4-benzodiazepin-3-yl)-2-(3,3,3-trifluoropropyl)succinamide]: the concentration for half-maximal inhibition (IC50) with human Notch 1 is 1.7 nM; in the series with human Notch 3 it was 1.5 nM. The values for the half-life at 0.5 µM in series [1] (setting [2]) and in series [1] (setting [3]) were at least 30 min and 46 min, respectively.
On the same counts, the results for `Cc1cc(F)cc(C2=N[C@H](NC(=O)[C@H](CCC(F)(F)F)[C@H](CC3CC3)C(N)=O)C(=O)Nc3c(Cl)cccc32)c1` [Example 3, (2R,3S)—N-((3S)-9-Chloro-5-(3-fluoro-5-methylphenyl)-2-oxo-2,3-dihydro-1H-benzo[e][1,4]diazepin-3-yl)-3-(cyclopropylmethyl)-2-(3,3,3-trifluoropropyl)succinamide] are 5.1 nM, 7.5 nM, at least 30 min and 77 min.
In the case of `COc1cccc2c1NC(=O)[C@@H](NC(=O)[C@H](CCC(F)(F)F)[C@H](CC1CC1)C(N)=O)N=C2c1cccc(F)c1` [Example 4, (2R,3S)-3-(Cyclopropylmethyl)-N-((3S)-5-(3-fluorophenyl)-9-methoxy-2-oxo-2,3-dihydro-1H-1,4-benzodiazepin-3-yl)-2-(3,3,3-trifluoropropyl)succinamide], the IC50 in the series with human Notch 1 was determined as 4.2 nM; in the series on human Notch 3, 8.1 nM. Besides, the half-life at 0.5 µM was at least 30 min in series [1] (setting [2]) and 83 min in series [1] (setting [3]).
For `NC(=O)[C@@H](CC1CC1)[C@@H](CCC(F)(F)F)C(=O)N[C@H]1N=C(c2cccc(F)c2)c2cccc(OC3CC3)c2NC1=O` [Example 5, (2R,3S)-3-(Cyclopropylmethyl)-N-((3S)-9-(cyclopropyloxy)-5-(3-fluorophenyl)-2-oxo-2,3-dihydro-1H-1,4-benzodiazepin-3-yl)-2-(3,3,3-trifluoropropyl)succinamide], in that order: 5.1 nM, 8.9 nM, at least 30 min and 74 min.
As to `NC(=O)[C@@H](CC1CC1)[C@@H](CCC(F)(F)F)C(=O)N[C@H]1N=C(c2ccccc2)c2cccc(OC3CC3)c2NC1=O` [Example 6, (2R,3S)-3-(Cyclopropylmethyl)-N-((3S)-9-(cyclopropyloxy)-2-oxo-5-phenyl-2,3-dihydro-1H-1,4-benzodiazepin-3-yl)-2-(3,3,3-trifluoropropyl)succinamide], the 50% inhibitory concentration (IC50) was 7.2 nM in the series on human Notch 1 and 8.6 nM in the series with human Notch 3. For the same compound, the half-life at 0.5 µM is at least 30 min in series [1] (setting [2]) and 83 min in series [1] (setting [3]).
Take `NC(=O)[C@@H](CC1CC1)[C@@H](CCC(F)(F)F)C(=O)N[C@H]1N=C(c2ccc(Cl)cc2)c2cccc(C3CC3)c2NC1=O` [Example 7, (2R,3S)—N-((3S)-5-(4-Chlorophenyl)-9-cyclopropyl-2-oxo-2,3-dihydro-1H-1,4-benzodiazepin-3-yl)-3-(cyclopropylmethyl)-2-(3,3,3-trifluoropropyl)succinamide]: the IC50 in the series on human Notch 1 was 2 nM; with human Notch 3 it was 3.3 nM. Further, the half-life at 0.5 µM in series [1] (setting [2]) was at least 30 min; in series [1] (setting [3]), 97 min.
On the same counts, the results for `Cc1cccc(C2=N[C@H](NC(=O)[C@H](CCC(F)(F)F)[C@H](CC3CC3)C(N)=O)C(=O)Nc3c(O)cccc32)c1` [Example 8, (2R,3S)-3-(Cyclopropylmethyl)-N-((3S)-9-hydroxy-5-(3-methylphenyl)-2-oxo-2,3-dihydro-1H-1,4-benzodiazepin-3-yl)-2-(3,3,3-trifluoropropyl)succinamide] are 5.6 nM, 15.7 nM, at least 30 min and 37 min.
On the same counts, the results for `Cc1cccc2c1NC(=O)[C@@H](NC(=O)[C@H](CCC(F)(F)F)[C@H](CC1CC1)C(N)=O)N=C2c1cccc(C(F)(F)F)c1` [Example 9, (2R,3S)-3-(Cyclopropylmethyl)-N-((3S)-9-methyl-2-oxo-5-(3-(trifluoromethyl)phenyl)-2,3-dihydro-1H-1,4-benzodiazepin-3-yl)-2-(3,3,3-trifluoropropyl)succinamide] are 1.8 nM, 4.9 nM, at least 30 min and 90 min.
On the same counts, the results for `Cc1cccc2c1NC(=O)[C@@H](NC(=O)[C@H](CCC(F)(F)F)[C@H](CC1CC1)C(N)=O)N=C2c1ccccc1` [Example 11, (2R,3S)-3-(Cyclopropylmethyl)-N-((3S)-9-methyl-2-oxo-5-phenyl-2,3-dihydro-1H-1,4-benzodiazepin-3-yl)-2-(3,3,3-trifluoropropyl)succinamide] are 4 nM, 8.7 nM, at least 30 min and 76 min.
In the case of `Cc1cccc2c1NC(=O)[C@@H](NC(=O)[C@H](CCC(F)(F)F)[C@H](CC1CC1)C(N)=O)N=C2c1ccc(F)cc1` [Example 12, (2R,3S)-3-(Cyclopropylmethyl)-N-((3S)-5-(4-fluorophenyl)-9-methyl-2-oxo-2,3-dihydro-1H-1,4-benzodiazepin-3-yl)-2-(3,3,3-trifluoropropyl)succinamide], the half-inhibitory concentration (IC50) in the series on human Notch 1 was 6.9 nM; in the series on human Notch 3 it was 28.3 nM. In addition, the half-life at 0.5 µM in series [1] (setting [2]) was at least 30 min; in series [1] (setting [3]), 104 min.
On the same counts, the results for `Cc1ccccc1C1=N[C@H](NC(=O)[C@H](CCC(F)(F)F)[C@H](CC2CC2)C(N)=O)C(=O)Nc2c(Cl)cccc21` [Example 13, (2R,3S)—N-((3S)-9-Chloro-5-(2-methylphenyl)-2-oxo-2,3-dihydro-1H-1,4-benzodiazepin-3-yl)-3-(cyclopropylmethyl)-2-(3,3,3-trifluoropropyl)succinamide] are 2.9 nM, 5.1 nM, at least 30 min and over 120 min.
Consider `NC(=O)[C@@H](CC1CC1)[C@@H](CCC(F)(F)F)C(=O)N[C@H]1N=C(c2ccccc2)c2cccc(C3CC3)c2NC1=O` [Example 14, (2R,3S)-3-(Cyclopropylmethyl)-N-(9-cyclopropyl-2-oxo-5-phenyl-2,3-dihydro-1H-1,4-benzodiazepin-3-yl)-2-(3,3,3-trifluoropropyl)succinamide], for which the half-inhibitory concentration (IC50) in the series on human Notch 1 is 4.3 nM; in the series with human Notch 3, 5.1 nM. The half-life at 0.5 µM in series [1] (setting [2]) was at least 30 min; in series [1] (setting [3]) it was 41 min.
In the case of `CCC[C@H](C(N)=O)[C@@H](CCC(F)(F)F)C(=O)N[C@H]1N=C(c2ccccc2)c2cccc(C)c2NC1=O` [Example 15, (2R,3S)—N-((3S)-9-Methyl-2-oxo-5-phenyl-2,3-dihydro-1H-1,4-benzodiazepin-3-yl)-3-propyl-2-(3,3,3-trifluoropropyl)succinamide], the IC50 in the series with human Notch 1 was 12.7 nM; in the series on human Notch 3 it was 9.3 nM. In addition, the half-life at 0.5 µM in series [1] (setting [2]) was at least 30 min; in series [1] (setting [3]), 40 min.
On the same counts, the results for `Cc1ccc(C2=N[C@H](NC(=O)[C@H](CCC(F)(F)F)[C@H](CC3CC3)C(N)=O)C(=O)Nc3c(F)cccc32)cc1` [Example 16, (2R,3S)-3-(Cyclopropylmethyl)-N-((3S)-9-fluoro-5-(4-methylphenyl)-2-oxo-2,3-dihydro-1H-1,4-benzodiazepin-3-yl)-2-(3,3,3-trifluoropropyl)succinamide] are 3.8 nM, 16 nM, at least 30 min and 75 min.
